Results as given in patent publication EP0728012B1, “NOVEL GnRH ANALOGUES WITH ANTITUMOUR EFFECTS AND PHARMACEUTICAL COMPOSITIONS THEREOF” (Lovas, Sandor, priority 1994, dated 1996).

What was measured:
cellular immune response = assay: Cellular immune response (rosette formation against BRBC antigen); assay type: in vivo; conditions: mice; dose not stated
From the text: (§1) The immunosuppressive side effect of cytostatics used in tumour therapy is commonly known. This effect can be compensated to a certain grade by various immunostimulants (endotoxin, levamisole). Polypeptides with much […] molecular weights (about 40,000 to 80,000) are also capable of protecting against immunosuppressive effect [Gaál et al: J. Biol. Resp. Modif., 5, 148-159 (1986)]. The molecular weight of the novel polyanionic P-GFLG-OH macromolecule tested by us is about 10,000, that of MI-1892 is about 2000, i.e. relatively low; therefore, their immunostimulatory activity was unexpected.

[1] = system: PC3 human prostate carcinoma cell line; assay: Inhibition of colony formation (dose-survival relation, Example 18); assay type: cell-based; conditions: for inhibition of colony formation: 30 to 50 µM
[2] = system: MDA-MB-231 human mammary carcinoma cell line; assay: as above; assay type: cell-based
[3] = system: Ishikawa human endometrium carcinoma cell line; assay: as above; assay type: cell-based; conditions: for inhibition of colony formation: 30 to 50 µM
[4] = system: MCF-7 human mammary carcinoma cell line; assay: as above; assay type: cell-based; conditions: treated once
humoral immune response = assay: Humoral immune response (antibody production of B-lymphocytes); assay type: in vivo; conditions: mice; dose not stated
From the text: as §1

MCF-7 = conditions: MCF-7; 30 µM active substance; conjugate, treated once; cell count on 7th day
Procedure: (§2) The procedure of treatment was as follows. After trypsinization the cells, 400,000 cells of MCF-7, MDA-MB-231 human mammary carcinoma, PC3 human prostate carcinoma or Ishikawa human endometrium tumour each were passed into Petri dishes of 10 cm in diameter. Starting from the day following transfer, the cells were treated with the substances to be tested in solution prepared with the nutrient medium during the exponential growth phase. […]

MDA-MB-231 = conditions: MDA-MB-231; 30 µM active substance; conjugate, treated once
Procedure: as §2

human tumour cell lines = assay: Inhibition of colony formation (Example 18), cell line not given; assay type: cell-based; conditions: 50 µM of the active substance; cell line not stated
Procedure: The investigation gives a precise information about the cell-damaging effect of the tested substance. In the case of cytostatics the cell-damaging effect is not cell-specific. […] One part of the arrested cells again go into the cycle, the other part may perish (apoptosis). […] The investigations were carried out on MCF-7 and MDA-MB-231 human mammary carcinoma cell lines, PC3 human prostate 15 carcinoma cell line and Ishikawa human endometrium carcinoma cell line. Three hundred cells were set into Petri dishes of 3.5 cm in diameter each. The treatment was carried out once, 24 hours following the explantation, then the colonies formed were counted after 9 to 12 days.

[5] = Castration effect: uterus weight of xenograft-bearing animals; assay type: in vivo, mice; conditions: animals bearing MCF-7 xenografts; treatment for four weeks
From the text: The castration effect is illustrated by the following data.

| Substance | increase of the cellular immune response (cellular immune response) | % Inhibition of colony formation ([1]; 10 µM) [%] | inhibition of colony formation [1] [%] | % Inhibition of colony formation ([2]; 10 µM) [%] | % Inhibition of colony formation ([2]; 30 µM) [%] | % Inhibition of colony formation ([3]; 10 µM) [%] | % Inhibition of colony formation ([3]; 30 µM) [%] | inhibition of colony formation [3] [%] | % Inhibition of colony formation ([4]; 10 µM (active substance)) [%] | % Inhibition of colony formation ([4]; 50 µM (active substance)) [%] | increase of the humoral immune response (humoral immune response) | % Inhibition of cell division (proliferation) (MCF-7) [%] | % Inhibition of cell division (proliferation) (MDA-MB-231) [%] | inhibition on the colony formation / survival of the cells (human tumour cell lines) [%] | % Inhibition of colony formation ([1]; 50 µM) [%] | % Inhibition of colony formation ([2]; 50 µM) [%] | % Inhibition of colony formation ([3]; 50 µM) [%] | uterus weight [5] [g] |
| --- | --- | --- | --- | --- | --- | --- | --- | --- | --- | --- | --- | --- | --- | --- | --- | --- | --- | --- |
| Ac-D-Trp^1,3,D-Cpa^2, {Lys[n-poly(N-vinyl pyrrolidone-co-maleic acid)-Gly-Phe-Leu-Gly-]}^5, [a-Asp(DEA)]^6, D-Ala^10-GnRH [P-GFLG-1892] | two-fold | 86 | 100 | 92 | 100 | 72 | 100 | 100 | 60 | 93 | possesses an immunostimulatory effect | 45 | 42 | 100 | – | – | – | – |
| Ac-D-Trp^1,3,D-Cpa^2,{Lys(n-poly-(N-vinylpyrrolidone-co-maleic acid)-Gly-Phe-Leu-Gly]}^6,D-Ala^10-GnRH [P-GFLG-1544] | – | 100 | 100 | 80 | – | – | – | 100 | 85 | 100 | – | 58 | 45 | 100 | 100 | 100 | 100 | 0.1149 ± 0.0110 |
